Data as given in ChEMBL document CHEMBL3994585, “Synthesis of α-santonin derivatives for diminutive effect on T and B-cell proliferation and their structure activity relationships” (Eur J Med Chem, 2017).

Experiments:
[1] = test system: T-cell; experiment: Cytotoxicity against Balb/c mouse T cells assessed as reduction in cell proliferation at 100 uM after 48 hrs by MTT assay; type: cell-based
[2] = test system: B-cell; experiment: Immunostimulant activity in Balb/c mouse B cells assessed as LPS-induced cell proliferation at 100 uM after 48 hrs by MTT assay relative to control; type: ADME, cell-based
[3] = test system: B-cell; experiment: Cytotoxicity against Balb/c mouse B cells assessed as reduction in cell proliferation at 100 uM after 48 hrs by MTT assay; type: cell-based
[4] = test system: T-cell; experiment: Cytotoxicity against Balb/c mouse T cells assessed as reduction in cell proliferation at 1 uM after 48 hrs by MTT assay; type: cell-based
[5] = test system: B-cell; experiment: Immunostimulant activity in Balb/c mouse B cells assessed as LPS-induced cell proliferation at 10 uM after 48 hrs by MTT assay relative to control; type: ADME, cell-based
[6] = test system: T-cell; experiment: Immunostimulant activity in Balb/c mouse T cells assessed as ConA-induced cell proliferation at 1 uM after 48 hrs by MTT assay relative to control; type: ADME, cell-based
[7] = test system: B-cell; experiment: Immunosuppressive activity in Balb/c mouse B cells assessed as LPS-induced cell proliferation at 1 uM after 48 hrs by MTT assay relative to control; type: functional
[8] = test system: T-cell; experiment: Cytotoxicity against Balb/c mouse T cells assessed as reduction in cell proliferation at 10 uM after 48 hrs by MTT assay; type: cell-based
[9] = test system: B-cell; experiment: Cytotoxicity against Balb/c mouse B cells assessed as reduction in cell proliferation at 10 uM after 48 hrs by MTT assay; type: cell-based
[10] = test system: T-cell; experiment: Effect on ConA-induced Balb/c mouse T cell proliferation at 10 uM after 48 hrs by MTT assay relative to control; type: functional
[11] = test system: T-cell; experiment: Immunostimulant activity in Balb/c mouse T cells assessed as ConA-induced cell proliferation at 100 uM after 48 hrs by MTT assay relative to control; type: ADME, cell-based
[12] = test system: B-cell; experiment: Cytotoxicity against Balb/c mouse B cells assessed as reduction in cell proliferation at 1 uM after 48 hrs by MTT assay; type: cell-based
[13] = molecular target: Tumor necrosis factor (Homo sapiens) (UniProt P01375); experiment: Inhibition of TNFalpha (unknown origin) at 5 uM relative to control
Tumor necrosis factor (Homo sapiens), sequence (P01375 whole entry): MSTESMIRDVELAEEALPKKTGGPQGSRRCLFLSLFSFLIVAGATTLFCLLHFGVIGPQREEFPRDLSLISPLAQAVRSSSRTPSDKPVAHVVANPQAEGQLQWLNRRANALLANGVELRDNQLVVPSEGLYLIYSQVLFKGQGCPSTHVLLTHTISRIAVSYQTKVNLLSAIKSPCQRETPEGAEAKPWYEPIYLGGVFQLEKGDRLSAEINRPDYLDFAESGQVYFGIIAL

[14] = test system: B-cell; experiment: Immunosuppressive activity in Balb/c mouse B cells assessed as LPS-induced cell proliferation at 10 uM after 48 hrs by MTT assay relative to control; type: functional
[15] = test system: T-cell; experiment: Immunosuppressive activity in Balb/c mouse T cells assessed as ConA-induced cell proliferation at 1 uM after 48 hrs by MTT assay relative to control; type: functional
[16] = test system: T-cell; experiment: Immunosuppressive activity in Balb/c mouse T cells assessed as ConA-induced cell proliferation at 10 uM after 48 hrs by MTT assay relative to control; type: functional
[17] = test system: T-cell; experiment: Immunosuppressive activity in Balb/c mouse T cells assessed as ConA-induced cell proliferation at 100 uM after 48 hrs by MTT assay relative to control; type: functional
[18] = molecular target: Tumor necrosis factor (Homo sapiens) (UniProt P01375); experiment: Inhibition of TNFalpha (unknown origin) at 10 uM relative to dexamethasone
[19] = molecular target: Tumor necrosis factor (Homo sapiens) (UniProt P01375); experiment: Inhibition of TNFalpha (unknown origin) at 1 uM relative to control
[20] = molecular target: Tumor necrosis factor (Homo sapiens) (UniProt P01375); experiment: Inhibition of TNFalpha (unknown origin) at 10 uM relative to control
[21] = test system: B-cell; experiment: Immunosuppressive activity in Balb/c mouse B cells assessed as LPS-induced cell proliferation at 100 uM after 48 hrs by MTT assay relative to control; type: functional
[22] = test system: B-cell; experiment: Effect on LPS-induced Balb/c mouse B cell proliferation at 100 uM after 48 hrs by MTT assay relative to control; type: functional
[23] = test system: T-cell; experiment: Immunostimulant activity in Balb/c mouse T cells assessed as ConA-induced cell proliferation at 10 uM after 48 hrs by MTT assay relative to control; type: ADME, cell-based
[24] = test system: B-cell; experiment: Immunostimulant activity in Balb/c mouse B cells assessed as LPS-induced cell proliferation at 1 uM after 48 hrs by MTT assay relative to control; type: ADME, cell-based

| Compound | Activity [1] | Activity [3] | Activity [4] | Activity [6] [%] | Activity [7] [%] | Activity [8] | Activity [9] | Activity [11] [%] | Activity [12] | inhibition [13] [%] | Activity [14] [%] | Activity [15] [%] | Activity [16] [%] | Activity [17] [%] | inhibition [19] | inhibition [20] [%] | Activity [21] [%] | further results |
| --- | --- | --- | --- | --- | --- | --- | --- | --- | --- | --- | --- | --- | --- | --- | --- | --- | --- | --- |
| CCOC(=O)[C@H](C)C1=Cc2c(C)c(O)cc(C)c2CC1 | Toxic | Toxic | Toxic | 11.34 | -1.76 | Toxic | Toxic | 22.68 | Toxic |  |  |  |  |  |  |  |  | Activity [2]: 14.15%; Activity [5]: 23%; Activity [10]: 0% |
| CC(=O)Oc1cc(C)c2c(c1C)C1OC(OC(C)=O)C(C)C1CC2 (stereo not drawn) | Toxic | Toxic | Toxic |  | -50 | Toxic | Toxic |  | Toxic | 9.9 | -28.02 | -38.23 | -26.47 | -43.38 | 0.34% | 26 | -45.05 | inhibition [18]: 50% |
| Cc1c(O)c([N+](=O)[O-])c(C)c2c1[C@@H]1OC(=O)[C@@H](C)[C@@H]1CC2 | Toxic | Toxic | Toxic | 13.4 | -10.61 | Toxic | Toxic | 36.08 | Toxic |  | -30.08 |  | -1.03 |  |  |  |  | Activity [22]: 0% |
| COC(=O)[C@H](C)C1=Cc2c(C)c(OC)cc(C)c2CC1 | Toxic | Toxic | Toxic | 11.34 | -1.76 | Toxic | Toxic | 22.68 | Toxic |  |  |  |  |  |  |  |  | Activity [2]: 14.15%; Activity [5]: 23%; Activity [10]: 0% |
| C[C@@H]1C[C@H]2[C@@H]3CCC4=CC(=O)C=C[C@]4(C)[C@@]3(F)[C@@H](O)C[C@]2(C)[C@@]1(O)C(=O)CO |  |  |  |  |  |  |  |  |  |  |  |  |  |  | 49.9% |  |  |  |
| Cc1cc(O)c(C)c2c1CC[C@@H]([C@@H](C)C(=O)Nc1ccc(CC#N)cc1)C2 | Toxic | Toxic | Toxic |  | -42.3 | Toxic | Toxic |  | Toxic | 4.5 | -39.56 | -36.02 | -30.14 | -7.35 | Below limit of detection | 17.1 | -46.7 |  |
| CC(=O)OC1=C(C)C2=C3OC(=O)C(C)=C3CC[C@@]2(C)CC1 | Toxic | Toxic | Toxic |  | -42.3 | Toxic | Toxic |  | Toxic | 24.1 | -42.3 | -30.88 | -38.23 | -34.55 | 3.03% | 44.9 | -45.6 |  |
| CC1=C2[C@H]3OC(=O)[C@@H](C)[C@@H]3CC[C@@]2(C)C=CC1=O [SANTONIN] | Non-Toxic | Non-Toxic | Non-Toxic |  |  | Non-Toxic | Non-Toxic |  | Non-Toxic | 6.2 | -24.17 | -36.02 |  | -5.16 | Below limit of detection | 19 | -33.62 | Activity [23]: 4.48%; Activity [24]: 20.35% |
